# According to PubChem BioAssay AID624445 (Broad Institute, 2012):
# Records with an inconclusive call do not appear. Active and inactive are the calls of the source.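 How the source made its calls: active means fitted curve drops past -35% activity change at a concentration under twice the top valid tested dose; inconclusive means no clear call, values can overlap the other calls; inactive means the rest, including effects in the wrong direction.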
# Tested on: 26S proteasome chymotrypsin-like activity (human)
# Test: cellular 26S proteasome inhibition check – cell-based, U2OS, Proteasome-Glo luminescence, dry powder, set 2, mechanism study for HSF1 activator project, dose response (AID 624445)
# Details: for activity change, negative = inhibition: at 38 µM (top of the series)
Structure (SMILES),AC35,"activity change, negative = inhibition"
O=C(Nc1nc(SCc2ccccc2)ns1)C1CCC1,30.4 µM,–
O=C(Nc1nc(SCc2ccccc2)ns1)C1CC=CCC1 (stereo unspecified),–,-30.5% (inactive)
Nc1nc(S(=O)(=O)Cc2ccccc2)ns1,–,-17.1% (inactive)
Nc1nc(SCc2ccc(Cl)cc2Cl)ns1,–,2.27% (inactive)
Cc1ccccc1CSc1nnc(N)s1,–,-25.3% (inactive)
Nc1nc(SCc2ccc(F)cc2)ns1,–,-32.9% (inactive)
Cc1ccccc1CSc1n[nH]c(N)n1,–,9.01% (inactive)

# Now from value to compound:
AC35,"activity change, negative = inhibition",Structure (SMILES)
–,-21.8% (inactive),Cc1ccccc1CSc1nsc(N)n1
35.2 µM,–,Cc1cccc(CSc2nsc(N)n2)c1
37.2 µM,–,Nc1nc(SCc2ccccc2)ns1
–,-20.5% (inactive),Nc1nc(SCc2ccccc2Cl)ns1
